This experiment relates to H9c2 cardiomyoblasts, H2O2 injury protection, ATPLite luminescence, 2 h. Nature of the experiment: protection of cardiomyoblasts from H2O2 death, SAR follow-up, H9c2 cells, set 2 (AID 624458).

Results on 34 compounds are retold here after PubChem BioAssay AID624458 (Sanford-Burnham Center for Chemical Genomics, 2012).

Several values for one entry are separate records, joined by “and”; a condition that tells them apart may be missing. Identical values can stand only once. Activity calls are given as the source filed them.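 How the source made its calls: active means mean IC50 of at most 10 µM; inactive means the rest.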

For the compound `COc1ccc2c(c1OC)C(=O)N1c3ccccc3C(=O)N(Cc3cccc(Cl)c3)C21` (centres undefined), the IC50 is 2.96 µM.

Turning to `O=C1c2ccccc2N2C(=O)c3ccccc3C2N1c1ccccc1` (centres undefined), the IC50 is 61.1 µM (inactive).

As for `COc1cccc(CNC(=O)c2cc(-c3cc(OC)c(OC)c(OC)c3)nc3ccccc23)c1`, the IC50 is 4.8 µM.

`COc1cc(-c2cc(C(=O)Nc3cccc(F)c3)c3ccccc3n2)cc(OC)c1OC`: the IC50 is 10.6 µM (inactive).

In the case of `COc1cc(-c2cc(C(=O)Nc3ccccc3)c3ccccc3n2)cc(OC)c1OC`, the IC50 was 10.1 µM (inactive).

For `COc1ccc2c(c1OC)C(=O)N1c3ccccc3C(=O)N(Cc3ccccc3Cl)C21` (centres undefined), the IC50 was 1.2 µM.

`COc1ccc2c(c1OC)C(=O)N1c3ccccc3C(=O)N(c3ccccc3)C21` (centres undefined): the IC50 is 11 µM (inactive).

Turning to `COc1cc(-c2cc(C(=O)Nc3cccc(C(C)=O)c3)c3cc(Cl)ccc3n2)cc(OC)c1OC`, the IC50 was 6.13 µM.

For the compound `CCOC(=O)c1cccc(NC(=O)c2cc(-c3cc(OC)c(OC)c(OC)c3)nc3ccccc23)c1`, the IC50 was 3.06 µM.

Turning to `COc1cc(-c2cc(C(=O)Nc3cccc(C(C)=O)c3)c3ccccc3n2)cc(OC)c1OC`, the IC50 is 1.41 µM and 4.26 µM.

Turning to `COc1ccc2c(c1OC)C(=O)N1c3ccccc3C(=O)N(c3cccc(Br)c3)C21` (centres undefined), the IC50 is 1.75 µM and 12.5 µM (inactive).

For the compound `O=C1c2ccccc2N2C(=O)c3ccccc3C2N1c1cccc(Br)c1` (centres undefined), the IC50 was > 79 µM (inactive).

As for `COc1cccc(NC(=O)c2cc(-c3cc(OC)c(OC)c(OC)c3)nc3ccccc23)c1`, the IC50 is 8.18 µM.

For `COc1cc(-c2cc(C(=O)Nc3cccc(C(F)(F)F)c3)c3ccccc3n2)cc(OC)c1OC`, the IC50 is 75.3 µM (inactive).

As to `CCN(CC(=O)Nc1ccc(OC)cc1)C(=O)c1cc(-c2cc(OC)c(OC)c(OC)c2)nc2ccccc12`, the IC50 is 3.89 µM.

On to `COc1ccc2c(c1OC)C(=O)N1c3ccccc3C(=O)N(c3ccc(Br)cc3)C21` (centres undefined), for which the IC50 was 1.97 µM.

Take `COc1cccc(CNC(=O)c2cc(-c3ccc(OC)c(OC)c3)nc3ccccc23)c1`: the IC50 is 5.82 µM.

For `COc1cccc(N2C(=O)c3ccccc3N3C(=O)c4ccccc4C23)c1` (centres undefined), the IC50 is 40.5 µM (inactive).

As to `COc1cc(-c2cc(C(=O)Nc3cccc(C)c3)c3ccccc3n2)cc(OC)c1OC`, the IC50 is 18.8 µM (inactive).

`COc1cc(-c2cc(C(=O)Nc3cccc(Cl)c3)c3ccccc3n2)cc(OC)c1OC`: the IC50 was 58.4 µM (inactive).

Turning to `CC(=O)c1cccc(NC(=O)c2cc(-c3ccccc3)nc3ccccc23)c1`, the IC50 is 7.04 µM.

Regarding `COc1ccc2c(c1OC)C(=O)N1c3ccccc3C(=O)N(c3ccc(C)cc3)C21` (centres undefined), the IC50 is 0.959 µM.

For `COc1cccc(-c2cc(C(=O)Nc3cccc(C(C)=O)c3)c3ccccc3n2)c1`, the IC50 is 6.74 µM.

As for `COc1ccc2c(c1OC)C(=O)N1c3ccccc3C(=O)N(c3cccc(Cl)c3)C21` (centres undefined), the IC50 is 12.1 µM (inactive).

As for `COc1ccc(-c2cc(C(=O)Nc3cccc(C(C)=O)c3)c3ccccc3n2)cc1OC`, the IC50 is 8.37 µM.

With `COc1ccc2c(c1OC)C(=O)N1c3ccccc3C(=O)N(c3cccc(C)c3)C21` (centres undefined), the IC50 was 17.8 µM (inactive).

As for `COc1cc(-c2cc(C(=O)Nc3ccc(C(C)=O)cc3)c3ccccc3n2)cc(OC)c1OC`, the concentration for half-maximal inhibition (IC50) is 3.53 µM.

In the case of `COc1ccc2c(c1OC)C(=O)N1c3ccccc3C(=O)N(c3ccc(C(C)(C)C)cc3)C21` (centres undefined), the IC50 was 5.55 µM.

Take `COc1ccc2c(c1OC)C(=O)N1c3ccccc3C(=O)N(c3cccc(C(F)(F)F)c3)C21` (centres undefined): the IC50 is 13.8 µM (inactive).

For `COc1cccc(N2C(=O)c3ccccc3N3C(=O)c4c(ccc(OC)c4OC)C23)c1` (centres undefined), the IC50 was 6.89 µM.

As for `COc1ccc(-c2cc(C(=O)Nc3cccc(C(C)=O)c3)c3ccccc3n2)cc1`, the IC50 was 5.6 µM.

Take `COc1ccc2c(c1OC)C(=O)N1c3ccccc3C(=O)N(c3cccc(F)c3)C21` (centres undefined): the IC50 was 6.91 µM.

In the case of `COc1ccc(NC(=O)c2cc(-c3cc(OC)c(OC)c(OC)c3)nc3ccccc23)cc1`, the IC50 was 7.41 µM.

In the case of `COc1ccc(N2C(=O)c3ccccc3N3C(=O)c4c(ccc(OC)c4OC)C23)cc1` (centres undefined), the IC50 is 12.8 µM (inactive).
